Data set [1] concerns photoreceptors. Nature of the data set: Rhodopsin mutant transgenic rat models of retinal degeneration. Type of data set: in vivo, Transgenic S334ter rats. The note with it: i.p., S334ter line 3 and line 4. How it is done: The objective of this study was to determine the efficacy of various retinoids in preventing retinal damage or improving retinal survival in rhodopsin mutant transgenic rat models of retinal degeneration. The overall goal of the research was to investigate potential photoreceptor survival in mutant rhodopsin transgenic rats using RAR α, RAR β γ, and RXR retinoid agonists.
The experimental design was straightforward. A compound was injected daily to line 3 and every two days for line 4 animals (i.p.) for a given period and animals were sacrificed at the end by CO2 overdose followed immediately by vascular perfusion of mixed aldehydes. Two litters of rats were used:
1. Transgenic S334ter-3 rats. Line 3 bears a rhodopsin mutation S334ter. […] Injection of a compound will be given daily from PD 6 (post-delivery day 6) to PD 20.
2. Transgenic S334ter-4 rats. Line 4 bears a rhodopsin mutation S334ter. Animals of this line experience a 80% loss of photoreceptors by 60 days after birth. The ONL is reduced to one row of nuclei. Injection of a compound will be given every other day from PD 25 to PD 60.
For the line 3 animals, treatment started at PD 6 and the endpoint was PD 20. For the line 4, injection began at PD 25 and ended at PD60 when eyes were harvested. Eyes were embedded in an Epon/Araldite mixture for sectioning at 1 μm thickness along the vertical meridian. Protection of photoreceptors was be evaluated by counting the rows of nuclei in the outer nuclear layer.
The outcome was a measure of retinal outer layer thickness, and cytology over an 8 week period. Compounds included the retinoid agonists tazarotene (RAR β γ), AGN 195183 (RAR α) and AGN 194204 (RXR). […] This is a fairly harsh model and as such the modest improvement by tazarotene is quite significant.

Data set [2] relates to PVR induced by human RPE cells. Nature of the data set: PVR model with retinoid implants, Fastenberg scale. The note with it: at 28 days; 10% loaded PLA/PLGA implants, intravitreal. Type of data set: in vivo. The text has this: PLA and PLGA implants 1.5 mm in diameter and 3 mm in length were fabricated by extrusion of the polymer drug blend. Tazarotenic acid (the free acid of Tazarotene) Tazarotene and 13-cis-retinoic acid were loaded into the implants at 10% concentrations. Briefly, pigmented rabbits were vitrectomized followed by intravitreal injection of 500,000 human RPE cells. After injection of the RPE cells the retinoid implants were placed into the vitreous and anchored to the sclera with the suture used to close the sclerotomy.
The eyes were examined weekly for 4 weeks. Severity of PVR was graded based on the Fastenberg scale. At 4 weeks gross pathology and limited histopathology were conducted.

Data set [3] deals with traction retinal detachment (PVR). The note with it: cited from earlier work.
For data set [4], the system named is PVR. The note with it: orally administered, retrospective study; cited from earlier work.
In data set [5] the test system is RPE proliferation. The note with it: biphasic, read-out: IC50, prevention of RPE proliferation in-vitro (biphasic), cited from earlier work.
For data set [6] the following is noted: cited from earlier work.
The nature of data set [7]: Ocular disposition of tazarotene and tazarotenic acid after intravitreal and subconjunctival dosing. The format is in vivo, albino rabbits. On the procedure: General disposition of intraocular and subconjunctivally administered tazarotene and tazarotenic acid was assessed. Briefly, albino rabbits were dosed via intraocular injection with 1.25 μg of tazarotene or tazarotenic acid. Injection was made mid-vitreous. After dosing the vitreous, retina and aqueous humor concentrations of tazarotene and tazarotenic acid were determined at 0.5, 1, 2, 4, 8, 12 and 24 hours post dosing. […] Additionally, the tazarotenic acid concentrations asymptotically approach approximately 10 ng/mL.
Tazarotene was also dosed in the subconjunctival space. Three dosage forms were evaluated: A tazarotene aqueous suspension (1 mg), a tazarotene subconjunctival olive oil solution (1 mg), and an tazarotene poly (lactide-co-glycolide) microsphere suspension. After dosing, the vitreous, retina and aqueous humor concentrations of tazarotene and tazarotenic acid were determined at 2, 8, 24, 48, 96, 168 and 336 hours post dosing. It was observed that subconjunctival administration achieved significant levels of tazarotene and tazarotenic acid in the ocular tissues.
Briefly, albino rabbits were dosed via intraocular injection with 1.25 μg of tazarotene or tazarotenic acid. Injection was made mid-vitreous. After dosing the vitreous, retina and aqueous humor concentrations of tazarotene and tazarotenic acid were determined at 0.5, 1, 2, 4, 8, 12 and 24 hours post dosing. […]

Data set [8] in a line: Plasma concentrations after topical and oral dosing of tazarotene. The note with it: for Cmax: human; for Cmax / TAZAROTENIC ACID Ctrough: plasma. Type of data set: in vivo, patients. On the procedure: […] For the most part tazarotene is not observed in the plasma after topical or oral administration. Facile hydrolysis by pre-systemic metabolism rapidly generates the free acid. […] It is important to note that these are plasma concentrations and the eye plasma distribution ratio is 0.02. Over 90% of all patients in the phase 3 clinical trials had concentrations of the parent compound, tazarotene, <1 ng/mL with the highest being 6 ng/mL.
(§1) Oral delivery of 1.1 mg and 6 mg multiple doses led to 28.9 ng/mL and 227 ng/ml peak levels with a 2.56 ng/mL trough. This corresponds to a maximum possible 4 ng/mL ocular level for the highest dose. FIG. 11 depicts the tissue distribution of tazarotenic acid. The eyes show a 2% tissue/plasma ration in the rat. It should be noted that tazarotenic acid is 99% protein bound and distribution is limited to unbound drug.

The nature of data set [9]: Tissue-to-plasma distribution after daily topical 14C-tazarotene. The format is in vivo. The note with it: rat. How it is done: FIG. 11 is a graph illustrating tissue-to-plasma concentration ratios of after twenty-one days of daily topical application of 14C-tazarotene to the skin of rats.
as §1

Data set [10] can be described thus: Protein binding of tazarotenic acid. Type of data set: in vitro ADME.
The mark [11] stands for this setting: Five to ten μg in a silicone oil tamponade.

Where two headings read alike, the source gives them in different places.

As for `CC(/C=C/[C@@H]1C[C@]1(C)c1ccc2c(c1)C(C)(C)CCC2(C)C)=C\C(=O)O` [AGN 194204], the “protection of photoreceptors (outer nuclear layer)” value in data set [1] was “Tazarotene was the only compound to show efficacy”.

Take `CC1(C)CCC(C)(C)c2c1cc(C(=O)Nc1cc(F)c(C(=O)O)c(F)c1)c(O)c2Cl` [AGN 195183]: the “protection of photoreceptors (outer nuclear layer)” value in data set [1] is “Tazarotene was the only compound to show efficacy”.

With `CC1=C(/C=C/C(C)=C/C=C/C(C)=C\C(=O)O)C(C)(C)CCC1` [Isotretinoin, 13-cis-retinoic acid], the “eyes progressed to traction retinal detachment” value in data set [2] came out at 22%. Besides, the “traction retinal detachment in animal model of PVR” value in [3] (setting [11]) was “effectively prevent traction retinal detachment”. For the same molecule, the “effect on PVR and retinal attachment” value in data set [4] was “effective at decreasing PVR and increasing the rate of retinal attachment”.

For the molecule `CC1=C(/C=C/C(C)=C/C=C/C(C)=C/C(=O)O)C(C)(C)CCC1` [RA, All trans-retinoic acid], the IC50 in data set [5] (first value) was 0.01 nM; in [5] (second value), 17 nM. The “traction retinal detachment in animal model of PVR” value in [3] (setting [11]) was “effectively prevent traction retinal detachment”; in data set [3] (Ten and 15 μg in 1-% hyaluronic acid and BSS) it was “reduced traction retinal detachment”. In data set [6] (five to ten μg in silicone oil), the “ocular toxicity by histopathology and ophthalmoscopic examination” value is given as “no ocular toxicity”. Besides, the “concentration well tolerated with no ERG changes” value in data set [6] (in vivo) is “up to 15 μg/mL”.

As to `CC1(C)CCSc2ccc(C#Cc3ccc(C(=O)O)cn3)cc21` [Tazarotenic Acid, 4,4-dimethyl-6-[2′-(5″-carboxy-2″-pyridyl)-ethynyl]-thiochroman], in data set [7] (after intraocular injection of 1.25 μg tazarotene), the “maximal vitreous concentration of tazarotenic acid (asymptote)” value is “approximately 10 ng/mL”. In addition, in data set [7] (albino, rabbit, vitreous, other: intraocular injection, mid-vitreous, 1.25 ug, midvitreous dosing of 1.25 μg tazarotenic acid, read-out: vitreous elimination half-life (converted)), the half-life was 4.24 h. Besides, the “maximum possible ocular level” value in data set [8] (highest oral dose (6 mg)) is given as at most 4 ng/mL. Also, the Cmax in data set [8] (po, 1.1 mg/Day, Oral 1.1 mg/Day, read-out: TAZAROTENIC ACID Cmax) turned out to be 28.9 ng/mL; in data set [8] (po, 3 mg/Day, Oral 3.0 mg/Day, read-out: TAZAROTENIC ACID Cmax), 81.6 ng/mL; in data set [8] (po, 6 mg/Day, Oral 6.0 mg/Day, read-out: TAZAROTENIC ACID Cmax), 227 ng/mL; in data set [8] (topical or ocular, 0.1 % gel, Topical Gel 0.1% 2% BSA, read-out: TAZAROTENIC ACID Cmax), 0.241 ng/mL; in [8] (topical or ocular, 0.1 % gel, Topical Gel 0.1% 7% BSA, read-out: TAZAROTENIC ACID Cmax), 0.83 ng/mL; in [8] (topical or ocular, 0.1 % gel, Topical Gel 0.1% 15% BSA, read-out: TAZAROTENIC ACID Cmax), 4.8 ng/mL. Moreover, the Cmax in [8] (topical or ocular, 0.1 % gel, Topical Gel 0.1% 20% BSA, read-out: TAZAROTENIC ACID Cmax) was 12 ng/mL; in data set [8] (topical or ocular, 0.1 % gel, Topical Gel 0.1% Phase 3, in 90%, read-out: TAZAROTENIC ACID Cmax), under 1 ng/mL; in data set [8] (topical or ocular, range over topical studies, read-out: Tazarotenic acid plasma concentrations (Cmax) from topical administration) it was 0.25 to 12 ng/mL. Further, the “TAZAROTENIC ACID Ctrough” value in data set [8] (Oral 6.0 mg/Day, listed as TAZAROTENIC ACID) was “Ctrough 2.56 ng/mL”; in [8] (Oral 6.0 mg/Day, listed as tazarotenic acid), 2.56 ng/mL. Besides, the eyes tissue/plasma ratio in data set [9] (FIG. 11) stood at 2%. Besides, the Kp at 21 days in data set [9] (eye, topical, read-out: eye plasma distribution ratio) amounted to 0.02. This molecule also came in with a protein bound in data set [10] of 99%. In addition, the “eyes progressed to traction retinal detachment” value in data set [2] is 12%.

These data come from patent publication US20110076318A1, “RETINOID-CONTAINING SUSTAINED RELEASE INTRAOCULAR IMPLANTS AND RELATED MATTERS” (Allergan, Inc., priority 2004, published 2011).
